# Experiments:
# Type in all cases: in vivo
# [1] = test system: field corn (Zea mays L., var. Dekalb 535, CORN); test: Post-emerge test, crop safety; conditions: rating scale 0-100 (0 no damage, 100 complete death), 14 days after application
# In short: (§1)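 Applied at 15–1000 g ai/ha from acetone in 187 l/ha spray volume. Post-emergence applications included 0.25% v/v non-ionic surfactant and reached plants sown 8–21 days before. Pre-emergence applications were incorporated by surface watering. Efficacy or crop damage was rated on a 0–100 scale after 14 days.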
# [2] = test system: upland rice (Oryza sp., var. Tebonnet, RICE); test: Post-emerge test, crop safety; conditions: rating scale 0-100 (0 no damage, 100 complete death), 14 days after application
# In short: as §1
# [3] = test system: field corn (Zea mays L., var. Dekalb 535, CORN); test: Pre-emerge test, crop safety; conditions: rating scale 0-100, 14 days after application
# In short: (§2)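 Sandy loam pots; pre-emerge: sown 1 d pre-spray, surface-watered after, then bottom-watered. Post-emerge: sown 8–21 d before, 2–3 leaf stage, + 0.25% v/v NIS, bottom-watered. Acetone, 187 l/ha track spray, 15–1000 g ai/ha. 0–100 injury score, day 14.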
# [4] = test system: upland rice (Oryza sp., var. Tebonnet, RICE); test: Pre-emerge test, crop safety; conditions: rating scale 0-100, 14 days after application
# In short: as §2
# [5] = test system: lambsquarters (Chenopodium album, CHEAL); test: Post-emerge test, greenhouse herbicide activity screening; conditions: rating scale 0-100 (0 no damage, 100 complete death), 14 days after application
# In short: (§3)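 Herbicidal damage is scored 0 (none) to 100 (complete plant death) two weeks after a simulated field spray. Rates span 15–1000 g ai/ha, delivered in acetone at 187 l/ha. For post-emergence treatments, plants have 2–3 leaves and the spray carries 0.25% v/v non-ionic surfactant.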
# [6] = test system: johnsongrass (Sorghum halepense, SORHA); test: as above; conditions: rating scale 0-100 (0 no damage, 100 complete death), 14 days after application
# In short: as §3
# [7] = test system: barnyardgrass (Echinochloa crus-galli, ECHCG); test: as above; conditions: rating scale 0-100 (0 no damage, 100 complete death), 14 days after application
# In short: as §3
# [8] = test system: green foxtail (Setaria viridis, SETVI); test: as above; conditions: rating scale 0-100 (0 no damage, 100 complete death), 14 days after application
# In short: as §3
# [9] = test system: sicklepod (Cassia obtusifolia, CASOB); test: as above; conditions: rating scale 0-100 (0 no damage, 100 complete death), 14 days after application
# In short: as §3
# [10] = test system: redroot pigweed (Amaranthus retroflexus, AMARE); test: as above; conditions: rating scale 0-100 (0 no damage, 100 complete death), 14 days after application
# In short: as §3
# [11] = test system: ivyleaf morningglory (Ipomoea hederacea, IPOHE); test: as above; conditions: rating scale 0-100 (0 no damage, 100 complete death), 14 days after application
# In short: as §3
# [12] = test system: large crabgrass (Digitaria sanguinalis, DIGSA); test: as above; conditions: rating scale 0-100 (0 no damage, 100 complete death), 14 days after application
# In short: as §3
# [13] = test system: velvetleaf (Abutilon theophrasti, ABUTH); test: as above; conditions: rating scale 0-100 (0 no damage, 100 complete death), 14 days after application
# In short: as §3
# [14] = test system: redroot pigweed (Amaranthus retroflexus, AMARE); test: Pre-emerge test, greenhouse herbicide activity screening; conditions: rating scale 0-100, 14 days after application
# In short: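 Rating: 0–100 visual injury, 14 DAA. Application: acetone, 187 l/ha, 15–1000 g ai/ha, flat-fan track sprayer with nozzle 40–45 cm above soil or canopy. Post-emerge runs used 0.25% v/v surfactant on 2–3 leaf plants.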
# [15] = test system: lambsquarters (Chenopodium album, CHEAL); test: as above; conditions: rating scale 0-100, 14 days after application
# In short: as §1
# [16] = test system: johnsongrass (Sorghum halepense, SORHA); test: as above; conditions: rating scale 0-100, 14 days after application
# In short: as §1
# [17] = test system: common ragweed (Ambrosia artemisizfolia L., AMBEL); test: as above; conditions: rating scale 0-100, 14 days after application
# In short: as §1
# [18] = test system: barnyardgrass (Echinochloa crus-galli, ECHCG); test: as above; conditions: rating scale 0-100, 14 days after application
# In short: as §1
# [19] = test system: green foxtail (Setaria viridis, SETVI); test: as above; conditions: rating scale 0-100, 14 days after application
# In short: as §1
# [20] = test system: sicklepod (Cassia obtusifolia, CASOB); test: as above; conditions: rating scale 0-100, 14 days after application
# In short: as §1
# [21] = test system: ivyleaf morningglory (Ipomoea hederacea, IPOHE); test: as above; conditions: rating scale 0-100, 14 days after application
# In short: as §1
# [22] = test system: large crabgrass (Digitaria sanguinalis, DIGSA); test: as above; conditions: rating scale 0-100, 14 days after application
# In short: as §1
# [23] = test system: velvetleaf (Abutilon theophrasti, ABUTH); test: as above; conditions: rating scale 0-100, 14 days after application
# In short: as §1
smiles,measurement,setting,value
"CCCCCOC(=O)C(Cl)Cc1c(OC)c(Cl)cc(F)c1-n1c(=O)cc(C(F)(F)F)n(C)c1=O (single isomer, unassigned) [14-11]",Post-emerge phytotoxicity rating CORN (crop damage),[1]; Rate 63 g ai/ha,100
same,Post-emerge phytotoxicity rating CORN (crop damage),[1]; Rate 250 g ai/ha,100
same,Post-emerge phytotoxicity rating RICE (crop damage),[2]; Rate 63 g ai/ha,10
same,Post-emerge phytotoxicity rating RICE (crop damage),[2]; Rate 250 g ai/ha,20
same,"Pre-emerge phytotoxicity rating, crop damage CORN",[3]; 63 g ai/ha,0
same,"Pre-emerge phytotoxicity rating, crop damage CORN",[3]; 250 g ai/ha,0
same,"Pre-emerge phytotoxicity rating, crop damage RICE",[4]; 63 g ai/ha,0
same,"Pre-emerge phytotoxicity rating, crop damage RICE",[4]; 250 g ai/ha,0
same,"Post-emerge Herbicidal Activity, phytotoxicity rating CHEAL",[5]; Rate 63 g ai/ha,50
same,"Post-emerge Herbicidal Activity, phytotoxicity rating CHEAL",[5]; Rate 250 g ai/ha,100
same,"Post-emerge Herbicidal Activity, phytotoxicity rating SORHA",[6]; Rate 63 g ai/ha,50
same,"Post-emerge Herbicidal Activity, phytotoxicity rating SORHA",[6]; Rate 250 g ai/ha,99
same,"Post-emerge Herbicidal Activity, phytotoxicity rating ECHCG",[7]; Rate 63 g ai/ha,100
same,"Post-emerge Herbicidal Activity, phytotoxicity rating ECHCG",[7]; Rate 250 g ai/ha,100
same,"Post-emerge Herbicidal Activity, phytotoxicity rating SETVI",[8]; Rate 63 g ai/ha,80
same,"Post-emerge Herbicidal Activity, phytotoxicity rating SETVI",[8]; Rate 250 g ai/ha,100
same,"Post-emerge Herbicidal Activity, phytotoxicity rating CASOB",[9]; Rate 63 g ai/ha,50
same,"Post-emerge Herbicidal Activity, phytotoxicity rating CASOB",[9]; Rate 250 g ai/ha,70
same,"Post-emerge Herbicidal Activity, phytotoxicity rating AMARE",[10]; Rate 63 g ai/ha,95
same,"Post-emerge Herbicidal Activity, phytotoxicity rating AMARE",[10]; Rate 250 g ai/ha,100
same,"Post-emerge Herbicidal Activity, phytotoxicity rating IPOHE",[11]; Rate 63 g ai/ha,90
same,"Post-emerge Herbicidal Activity, phytotoxicity rating IPOHE",[11]; Rate 250 g ai/ha,100
same,"Post-emerge Herbicidal Activity, phytotoxicity rating DIGSA",[12]; Rate 63 g ai/ha,99
same,"Post-emerge Herbicidal Activity, phytotoxicity rating DIGSA",[12]; Rate 250 g ai/ha,100
same,"Post-emerge Herbicidal Activity, phytotoxicity rating ABUTH",[13]; Rate 63 g ai/ha,80
same,"Post-emerge Herbicidal Activity, phytotoxicity rating ABUTH",[13]; Rate 250 g ai/ha,100
same,"Pre-emerge herbicidal activity, phytotoxicity rating AMARE",[14]; 63 g ai/ha,100
same,"Pre-emerge herbicidal activity, phytotoxicity rating AMARE",[14]; 250 g ai/ha,100
same,"Pre-emerge herbicidal activity, phytotoxicity rating CHEAL",[15]; 63 g ai/ha,70
same,"Pre-emerge herbicidal activity, phytotoxicity rating CHEAL",[15]; 250 g ai/ha,100
same,"Pre-emerge herbicidal activity, phytotoxicity rating SORHA",[16]; 63 g ai/ha,0
same,"Pre-emerge herbicidal activity, phytotoxicity rating SORHA",[16]; 250 g ai/ha,0
same,"Pre-emerge herbicidal activity, phytotoxicity rating AMBEL",[17]; 63 g ai/ha,0
same,"Pre-emerge herbicidal activity, phytotoxicity rating AMBEL",[17]; 250 g ai/ha,100
same,"Pre-emerge herbicidal activity, phytotoxicity rating ECHCG",[18]; 63 g ai/ha,0
same,"Pre-emerge herbicidal activity, phytotoxicity rating ECHCG",[18]; 250 g ai/ha,0
same,"Pre-emerge herbicidal activity, phytotoxicity rating SETVI",[19]; 63 g ai/ha,0
same,"Pre-emerge herbicidal activity, phytotoxicity rating SETVI",[19]; 250 g ai/ha,50
same,"Pre-emerge herbicidal activity, phytotoxicity rating CASOB",[20]; 63 g ai/ha,0
same,"Pre-emerge herbicidal activity, phytotoxicity rating CASOB",[20]; 250 g ai/ha,0
same,"Pre-emerge herbicidal activity, phytotoxicity rating IPOHE",[21]; 63 g ai/ha,30
same,"Pre-emerge herbicidal activity, phytotoxicity rating IPOHE",[21]; 250 g ai/ha,50
same,"Pre-emerge herbicidal activity, phytotoxicity rating DIGSA",[22]; 63 g ai/ha,50
same,"Pre-emerge herbicidal activity, phytotoxicity rating DIGSA",[22]; 250 g ai/ha,100
same,"Pre-emerge herbicidal activity, phytotoxicity rating ABUTH",[23]; 63 g ai/ha,50
same,"Pre-emerge herbicidal activity, phytotoxicity rating ABUTH",[23]; 250 g ai/ha,100

# Source: patent US6355799B1, “Substituted benzene compounds, process for their preparation, and herbicidal and defoliant compositions containing them” (ISK Americas Incorporated, priority 1997, dated 2002)
